ChEMBL document CHEMBL5104092, “An insight into the recent development of the clinical candidates for the treatment of malaria and their target proteins” (Eur J Med Chem, 2021)
Values after ≈ are worked out from the molar mass of the structure shown. Values belong to the compound of their own block, whether it stands above or below them.

Experiments:
Plasmodium falciparum [1] = test: Antimalarial activity against Plasmodium falciparum NF54; format: functional, organism-based
Plasmodium falciparum [2] = test: Antimalarial activity against Plasmodium falciparum K1; format: functional, organism-based
Plasmodium falciparum [3] = test: Antimalarial activity against chloroquine sensitive Plasmodium falciparum 3D7 incubated for 72 hrs by malaria SYBR green I nucleic acid staining dye based fluorescence assay; format: functional, organism-based; details: 3D7, 72 h
Plasmodium falciparum [4] = test: Antimalarial activity against chloroquine resistant Plasmodium falciparum K1 incubated for 72 hrs by malaria SYBR green I nucleic acid staining dye based fluorescence assay; format: functional, organism-based; details: K1, 72 h
[5] = Inhibition of Plasmodium falciparum DHODH expressed in Escherichia coli BL21 cells using L-dihydroorotate as substrate by DCIP staining method
Plasmodium falciparum [6] = test: Antimalarial activity against Plasmodium falciparum 3D7 incubated for 72 hrs by SYBR-green method; format: functional, organism-based; details: 3D7, 72 h
Plasmodium yoelii = test: In vivo antimalarial activity against chloroquine resistant Plasmodium yoelii N-67 infected in Swiss albino mouse assessed as suppression of parasitemia at 10 mg/kg relative to control; format: functional
[7] = Dissociation constant, pKa of compound; format: physicochemical
Plasmodium falciparum [8] = test: In vivo antimalarial activity against Plasmodium falciparum infected in NMRI mouse; format: functional
[9] = Inhibition of Plasmodium vivax PI4K
Plasmodium berghei [10] = test: In vivo antimalarial activity against Plasmodium berghei infected in SCID mouse; format: functional
Plasmodium berghei [11] = test: In vivo antimalarial activity against Plasmodium berghei infected in Balb/C mouse model assessed as parasite clearance at 30 mg/kg, po administered every 24 hrs for 3 days followed by chloroquine addition measured on day 4 by flow cytometric analysis relative to control; format: functional; details: time 4 day
CYP450 = CYP450 (Homo sapiens, UniProt P04798+P05177+P05181+P08684+P10632+P10635+P11509+P11712+P13584+P20813+P20815+P20853+P24462+P24903+P33260+P33261+P51589+P78329+P98187+Q02928+Q08477+Q16678+Q16696+Q5TCH4+Q6VVX0+Q7Z449+Q8TAV3+Q96SQ9+Q9HB55); test: Inhibition of CYP450 (unknown origin); format: ADME, protein assay
Plasmodium berghei [12] = test: In vivo antimalarial activity against Plasmodium berghei infected in mouse model; format: functional
[13] = biological target: Voltage-gated inwardly rectifying potassium channel KCNH2 (Homo sapiens, UniProt Q12809); test: Inhibition of human ERG; format: toxicity
Sequence of Voltage-gated inwardly rectifying potassium channel KCNH2 (Q12809 whole entry): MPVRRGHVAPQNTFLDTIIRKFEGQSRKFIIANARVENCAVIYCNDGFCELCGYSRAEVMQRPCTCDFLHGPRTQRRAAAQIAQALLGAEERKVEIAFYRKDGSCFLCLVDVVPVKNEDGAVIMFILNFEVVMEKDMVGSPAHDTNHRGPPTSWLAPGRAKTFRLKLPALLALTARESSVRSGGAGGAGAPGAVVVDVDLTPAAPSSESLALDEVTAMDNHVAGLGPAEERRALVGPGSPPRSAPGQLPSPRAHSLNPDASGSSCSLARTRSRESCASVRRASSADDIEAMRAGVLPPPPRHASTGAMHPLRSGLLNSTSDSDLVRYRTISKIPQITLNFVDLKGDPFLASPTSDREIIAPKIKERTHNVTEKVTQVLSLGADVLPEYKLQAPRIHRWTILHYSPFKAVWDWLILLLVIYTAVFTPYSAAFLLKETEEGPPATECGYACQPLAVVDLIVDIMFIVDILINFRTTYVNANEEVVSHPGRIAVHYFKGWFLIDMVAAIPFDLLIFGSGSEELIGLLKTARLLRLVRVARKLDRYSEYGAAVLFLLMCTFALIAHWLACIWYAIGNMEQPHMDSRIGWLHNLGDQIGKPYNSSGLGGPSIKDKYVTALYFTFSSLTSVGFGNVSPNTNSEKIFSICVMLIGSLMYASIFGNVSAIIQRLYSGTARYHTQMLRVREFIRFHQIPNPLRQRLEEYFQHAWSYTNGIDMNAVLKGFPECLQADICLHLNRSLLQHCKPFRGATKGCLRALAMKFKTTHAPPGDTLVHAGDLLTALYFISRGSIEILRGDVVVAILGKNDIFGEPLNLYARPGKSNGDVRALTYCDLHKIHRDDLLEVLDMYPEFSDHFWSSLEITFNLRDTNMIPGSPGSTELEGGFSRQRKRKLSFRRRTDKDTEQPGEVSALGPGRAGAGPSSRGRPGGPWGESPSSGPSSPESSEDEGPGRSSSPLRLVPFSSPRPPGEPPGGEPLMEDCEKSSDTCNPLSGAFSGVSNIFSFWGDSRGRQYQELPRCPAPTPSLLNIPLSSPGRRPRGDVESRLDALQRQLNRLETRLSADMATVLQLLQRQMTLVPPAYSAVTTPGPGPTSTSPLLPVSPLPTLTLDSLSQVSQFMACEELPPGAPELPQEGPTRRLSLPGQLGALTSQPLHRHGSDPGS

Plasmodium falciparum [14] = test: Antimalarial activity against Plasmodium falciparum 3D7; format: functional, organism-based
[15] = test system: Plasmodium yoelii nigeriensis; test: In vivo antimalarial activity against Plasmodium yoelii nigeriensis infected in Swiss mouse; format: functional
[16] = Inhibition of Plasmodium falciparum DHODH expressed in Escherichia coli BL21 (DE3) cells by DCIP staining method
Plasmodium falciparum [17] = test: Antimalarial activity against Plasmodium falciparum assessed as increase in parasite swelling diameter at ring stage after 2 hrs by time-lapse live cell imaging (reference value: […]); format: functional
Plasmodium falciparum [18] = test: Antimalarial activity against chloroquine resistant Plasmodium falciparum Dd2 incubated for 48 hrs by SYBR green I fluorescence based assay; format: functional, organism-based; details: Dd2, 48 h
Plasmodium falciparum [19] = test: Antimalarial activity against chloroquine resistant Plasmodium falciparum W2 incubated for 48 hrs by SYBR green I fluorescence based assay; format: functional, organism-based; details: W2, 48 h
Plasmodium falciparum [20] = test: Antimalarial activity against chloroquine sensitive Plasmodium falciparum NF54 incubated for 48 hrs by SYBR green I fluorescence based assay; format: functional, organism-based; details: NF54, 48 h
Plasmodium falciparum [21] = test: Antimalarial activity against chloroquine resistant Plasmodium falciparum K1 incubated for 48 hrs by SYBR green I fluorescence based assay; format: functional, organism-based; details: K1, 48 h
[22] = Drug elimination in human urine assessed as unchanged fraction; format: ADME; details: read-out: Drug excretion
Plasmodium falciparum [23] = test: Antimalarial activity against chloroquine-sensitive Plasmodium falciparum 3D7 by Giemsa staining method; format: functional, organism-based
Plasmodium falciparum [24] = test: In vivo antimalarial activity against Plasmodium falciparum infected in SCID mouse; format: functional
HepG2 = test: Cytotoxicity against human HepG2 cells; format: functional, cell-based
Plasmodium falciparum [25] = test: Antimalarial activity against Plasmodium falciparum Dd2; format: functional, organism-based

EC50 (Plasmodium falciparum [1]): 2 nM
EC50 (Plasmodium falciparum [2]): 5 nM
SMILES: COC(=O)N1CCN(C(=N)c2cccc(NC(=O)Nc3ccc(S(=O)(=O)NCc4ccc(S(N)(=O)=O)cc4)cc3)c2)CC1

SMILES: CC1CCCN(C[C@H](C)Nc2ccnc3cc(Cl)ccc23)C1 (some centres undefined)
IC50 (Plasmodium falciparum [3]): 14 nM
IC50 (Plasmodium falciparum [4]): 21 nM

IC50 [5]: 36 nM
EC50 (Plasmodium falciparum [6]): 17 nM
SMILES: Cc1nc(Nc2ccc(S(F)(F)(F)(F)F)cc2)c2c(C)noc2n1

SMILES: CC(C)C[C@@H](CN1CCN(C)CC1)Nc1ccnc2cc(Cl)ccc12.Cl
Activity (Plasmodium yoelii): 100%

pKa [7]: 7.2
IC50 (Plasmodium falciparum [1]): 91.5 nM
IC50 (Plasmodium falciparum [2]): 9.6 nM
SMILES: CC(C)(C)c1cc(O)c(CN)c(C(C)(C)C)c1

pKa [7]: 4.6
SMILES: C[C@H]1Cc2c([nH]c3cc(Cl)c(F)cc23)[C@@]2(N1)C(=O)Nc1ccc(Cl)cc12 [CIPARGAMIN]
ED90 (Plasmodium falciparum [8]): 2.7 mg/kg

SMILES: CC1CCN(C[C@@H](CC2CCCCC2)Nc2ccnc3cc(Cl)ccc23)CC1
IC50 (Plasmodium falciparum [3]): 938 nM
IC50 (Plasmodium falciparum [4]): 7 nM

SMILES: Nc1ncc(-c2ccc(C(=O)N3CCNCC3)cc2)nc1-c1ccc(C(F)(F)F)cc1
pKa [7]: 8.1
IC50 [9]: 23 nM
ED90 (Plasmodium berghei [10]): 0.25 mg/kg
IC50 (Plasmodium falciparum [1]): 5.4 nM
IC50 (Plasmodium falciparum [2]): 4.7 nM

SMILES: CN1CCN(c2nc(Cl)cc(NCCNc3ccnc4cc(Cl)ccc34)n2)CC1
Activity (Plasmodium berghei [11]): 93.9%

SMILES: CC1(C)c2nc(-c3ccc(F)cc3)c(Nc3ccc(F)cc3)n2CCN1C(=O)CN [GANAPLACIDE]
pKa [7]: 7.3
IC50 (CYP450): > 6000 nM
ED99 (Plasmodium berghei [12]): 2.2 mg/kg
IC50 [13]: 13400 nM

SMILES: C=C(c1ccc(OC(C)(C)COC(=O)CCC(=O)O)cc1)C1COC2(OO1)C1CC3CC(C1)CC2C3 (centres undefined)
IC50 (Plasmodium falciparum [14]): 49 nM
pKa [7]: 4
ED90 [15]: 18.3 mg/kg

SMILES: c1cc([C@H]2CC[C@]3(CC2)OO[C@]2(O3)C3CC4CC(C3)CC2C4)ccc1OCCN1CCOCC1 [ARTEFENOMEL]
pKa [7]: 7
IC50 (Plasmodium falciparum [1]): 4.6 nM
IC50 (Plasmodium falciparum [2]): 3.8 nM

IC50 [16]: 2900 nM
SMILES: COC(=O)[C@]1(C)C[C@H](c2ccccc2)N2[C@@H](C)CC(=O)N21

SMILES: CC(C)c1nc2ccccc2n1CC(=O)Nc1c(-c2ccc(Cl)cc2F)c(C(F)(F)F)nn1C
Activity (Plasmodium falciparum [17]): 4.6 µm

pKa [7]: 12.6
SMILES: O=C(c1ccc(OC[C@H](O)Cn2ncnn2)cc1)N1CC[C@H](c2ccc(F)cc2)C1

SMILES: C[C@H]1[C@H](Nc2ccc(F)cc2)O[C@@H]2O[C@]3(C)CC[C@H]4[C@H](C)CC[C@@H]1[C@@]24OO3
IC50 (Plasmodium falciparum [18]): 11.1 nM
IC50 (Plasmodium falciparum [19]): 3 nM
IC50 (Plasmodium falciparum [20]): 1.3 nM
IC50 (Plasmodium falciparum [21]): 0.6 nM

dose excreted [22]: < 1%
SMILES: COc1cc(NCCCC(C)N)c2ncccc2c1 (centres undefined) [QUINOCIDE]

IC50 (Plasmodium falciparum [23]): 11.3 mg/L (≈ 22 µM)
SMILES: O=[N+]([O-])c1cccc(-c2csc(Nc3nc(NNc4ccccc4)nc(NNc4ccccc4)n3)n2)c1

SMILES: FC1CCN(CCOc2ccc(C3CCC4(CC3)OOC3(OO4)C4CC5CC(C4)CC3C5)cc2)CC1 (centres undefined)
pKa [7]: 8.4
ED90 (Plasmodium falciparum [24]): 11 mg/kg
IC50 (CYP450): > 20000 nM
IC50 (Plasmodium falciparum [1]): 5.2 nM
IC50 (Plasmodium falciparum [2]): 4.2 nM

EC50 (Plasmodium falciparum [14]): 9 nM
pKa [7]: 5
EC50 (Plasmodium falciparum [25]): 3 nM
SMILES: COc1ccc(NC(=O)N2CCCCN3[C@H](CN(C)C)[C@H](c4ccc(C#Cc5ccccc5)cc4)[C@@H]3C2)cc1
CC50 (HepG2): 9000 nM
IC50 [13]: 2100 nM
